“And” between values parts separate entries of the source, which are not always exact repeats. Identical values can stand only once. Like-named read-outs stand apart in the source and are kept apart here.
Assays:
NIH/3T3 = system: NIH/3T3; set-up: method as in doi:10.1039/C4TX00079J; details: NIH/3T3 ref 39; cited from earlier work
CaCo-2 = system: CaCo-2; set-up: method as in doi:10.1039/C4TX00079J; details: CaCo-2 ref 39; cited from earlier work
cress [1] = system: cress; set-up: method as in doi:10.1134/S0036023620090089; details: cited from earlier work
[2] = system: 3T3 cell (mouse embryonic fibroblasts); details: cited from earlier work
cress [3] = system: cress; set-up: method as in PMID 19052732; details: cress seed, highest concentration of 1000 mg L^−1 ref 17; cited from earlier work
C. albicans ATCC 10231 = test: Antimicrobial activity, broth microdilution MIC/MBC; assay type: cell-based, Candida albicans; details: C. albicans ATCC 10231, 24 h at 37 °C, at least 90% growth inhibition; nd—not detected
[4] = system: Lepidium sativum L. seeds; details: 24 h incubation, mean(±SD), n = 3
L929 fibroblasts = test: Mammalian cell cytotoxicity screening, resazurin viability; assay type: cell-based, mouse
E. coli ATCC 8739 = test: Antimicrobial activity, broth microdilution MIC/MBC; assay type: cell-based, Escherichia coli; details: nd—not detected; for MIC (%): E. coli ATCC 8739, 24 h at 37 °C, at least 90% growth inhibition; for MBC (%): E. coli ATCC 8739
S. aureus ATCC 6538 = test: as above; assay type: cell-based, Staphylococcus aureus; details: S. aureus ATCC 6538, 24 h at 37 °C, at least 90% growth inhibition; nd—not detected
[5] = system: Lepidium sativum L. roots; details: 24 h incubation, mean(±SD), n = 3
[6] = set-up: method as in PMID 28665154; details: cited from earlier work
E. coli = system: E. coli; set-up: method as in doi:10.3139/113.110524; details: E. coli ref 49; cited from earlier work
[7] = 0.01% (w/w) compound in the medium
[8] = 0.03% (w/w) compound in the medium
[9] = 0.05% (w/w) compound in the medium
[10] = 0.10% (w/w) compound in the medium
[11] = 0.30% (w/w) compound in the medium
[12] = 0.50% (w/w) compound in the medium
[13] = 1.00% (w/w) compound in the medium
[14] = 2.00% (w/w) compound in the medium
[15] = 4.00% (w/w) compound in the medium
[16] = 3.00% (w/w) compound in the medium
[17] = 5.00% (w/w) compound in the medium

## CCCCn1cc[n+](C)c1.C[C@H](N)C(=O)[O-] [[BMIM][Ala]]
NIH/3T3
  IC50: 30.2 mM
CaCo-2
  IC50: 19.3 mM

## O=C(O)C=Cc1ccccc1.OCCN(CCO)CCO [TEA salt of cinnamic acid]
Cress [1]; 0.003 and 0.03 mg L^−1 ref 12
  effect on cress seed germination and root growth: most visible stimulation

## NCC(=O)O [[Cho][Gly]]
[2]; 3T3 cells, 48 h, printed also as (1%) ref 34
  IC50: ~55 mM

## CCn1cc[n+](C)c1.[Cl-] [[EMIM][Cl]]
Cress [3]
  decrease in germination: 85%

## NC(CO)C(=O)O.OCCN(CCO)CCO [[TEA][Ser]]
C. albicans ATCC 10231
  MIC (%): 3.75%
[4]; [7]
  Inhibition of the Lepidium sativum seeds germination (ISG, %): 0.0(±0.0) %
[4]; [8]
  Inhibition of the Lepidium sativum seeds germination (ISG, %): 0.0(±0.0) %
[4]; [9]
  Inhibition of the Lepidium sativum seeds germination (ISG, %): 0.0(±0.0) %
[4]; [10]
  Inhibition of the Lepidium sativum seeds germination (ISG, %): 2.8(±1.7) %
[4]; [11]
  Inhibition of the Lepidium sativum seeds germination (ISG, %): 5.7(±1.3) %
[4]; [12]
  Inhibition of the Lepidium sativum seeds germination (ISG, %): 6.6(±0.9) %
[4]; [13]
  Inhibition of the Lepidium sativum seeds germination (ISG, %): 7.5(±1.7) %
[4]; [14]
  Inhibition of the Lepidium sativum seeds germination (ISG, %): 17.0(±0.5) %
[4]; [15]
  Inhibition of the Lepidium sativum seeds germination (ISG, %): 34.0(±2.6) %
L929 fibroblasts; 24h exposure
  ED20: 0.26±0.03%
  ED50: 0.55±0.04%
  ED80: 0.98±0.11%
E. coli ATCC 8739
  MIC (%): 7.50%
  MBC (%): 7.50%
S. aureus ATCC 6538
  MIC (%): 7.50%
[5]; [7]
  Inhibition of the root growth in pregerminated Lepidium sativum seeds (IRG, %): 0.0(±0.0) % and 0%
[5]; [8]
  Inhibition of the root growth in pregerminated Lepidium sativum seeds (IRG, %): 0.0(±0.0) % and 0%
[5]; [9]
  Inhibition of the root growth in pregerminated Lepidium sativum seeds (IRG, %): 0.0(±0.0) % and 0%
[5]; [11]
  Inhibition of the root growth in pregerminated Lepidium sativum seeds (IRG, %): 14.6%
[5]; [12]
  Inhibition of the root growth in pregerminated Lepidium sativum seeds (IRG, %): 25.3%
[5]; [13]
  Inhibition of the root growth in pregerminated Lepidium sativum seeds (IRG, %): 70.2(±0.7) %
[5]; [14]
  Inhibition of the root growth in pregerminated Lepidium sativum seeds (IRG, %): 77.8(±0.6) %
[5]; [16]
  Inhibition of the root growth in pregerminated Lepidium sativum seeds (IRG, %): 79.5(±0.6) %
[5]; [15]
  Inhibition of the root growth in pregerminated Lepidium sativum seeds (IRG, %): 81.3(±0.5) %
[5]; [17]
  Inhibition of the root growth in pregerminated Lepidium sativum seeds (IRG, %): 91.2(±0.4) %

## C[N+](C)(C)CCO.NC(Cc1ccccc1)C(=O)[O-] (stereo not drawn) [[Cho][Phe]]
[6]
  IC50: 0.42 % (v/v)

## benzalkonium chloride
E. coli
  MIC: 15 µg/mL

## C[N+](C)(C)CCO.NCC(=O)[O-] [[Cho][Gly]]
[2]
  Cell viability: over 90%

## CCCCCCn1cc[n+](C)c1.[Cl-] [[HMIM][Cl]]
Cress [3]
  decrease in germination: 100%

## C[N+](C)(C)CCO.N[C@@H](CCC(=O)O)C(=O)[O-] [[Cho][Glu]]
[6]
  IC50: 0.43 % (v/v)

## CCCCn1cc[n+](C)c1 [[BMIM][(L)-Lac]]
NIH/3T3
  IC50: 33.6 mM
CaCo-2
  IC50: 19.2 mM

## CCCCn1cc[n+](C)c1 [[BMIM][BF4]]
NIH/3T3
  IC50: 11.3 mM
CaCo-2
  IC50: 11.2 mM

## O=C(O)[C@@H]1CCCN1.OCCN(CCO)CCO [[TEA][Pro]]
C. albicans ATCC 10231
  MIC (%): 7.50%
[4]; [7]
  Inhibition of the Lepidium sativum seeds germination (ISG, %): 3.7(±0.5) %
[4]; [8]
  Inhibition of the Lepidium sativum seeds germination (ISG, %): 6.5(±0.5) %
[4]; [9]
  Inhibition of the Lepidium sativum seeds germination (ISG, %): 9.3(±0.5) %
[4]; [10]
  Inhibition of the Lepidium sativum seeds germination (ISG, %): 16.7(±0.8) %
[4]; [11]
  Inhibition of the Lepidium sativum seeds germination (ISG, %): 18.5(±0.5) %
[4]; [12]
  Inhibition of the Lepidium sativum seeds germination (ISG, %): 20.4(±1.3) %
[4]; [13]
  Inhibition of the Lepidium sativum seeds germination (ISG, %): 25.9(±1.3) %
[4]; [14]
  Inhibition of the Lepidium sativum seeds germination (ISG, %): 29.6(±0.9) %
[4]; [16]
  Inhibition of the Lepidium sativum seeds germination (ISG, %): 40.7(±0.5) %
[4]; [15]
  Inhibition of the Lepidium sativum seeds germination (ISG, %): 51.9(±0.5) %
[4]; [17]
  Inhibition of the Lepidium sativum seeds germination (ISG, %): 79.6(±0.5) %
L929 fibroblasts; 24h exposure
  ED20: 0.32±0.05%
  ED50: 0.56±0.04%
  ED80: 0.86±0.14%
L929 fibroblasts; 48h exposure
  ED20: 0.35±0.04%
  ED50: 0.64±0.04%
  ED80: 1.00±0.13%
E. coli ATCC 8739
  MIC (%): 7.50%
  MBC (%): 7.50%
S. aureus ATCC 6538
  MIC (%): 7.50%
[5]; [7]
  Inhibition of the root growth in pregerminated Lepidium sativum seeds (IRG, %): 0.0(±0.0) %
[5]; [8]
  Inhibition of the root growth in pregerminated Lepidium sativum seeds (IRG, %): 20.7(±2.1) %
[5]; [9]
  Inhibition of the root growth in pregerminated Lepidium sativum seeds (IRG, %): 27.3(±2.2) %
[5]; [10]
  Inhibition of the root growth in pregerminated Lepidium sativum seeds (IRG, %): 39.5(±1.9) %
[5]; [11]
  Inhibition of the root growth in pregerminated Lepidium sativum seeds (IRG, %): 57.5(±1.5) %
[5]; [12]
  Inhibition of the root growth in pregerminated Lepidium sativum seeds (IRG, %): 67.7(±1.1) %
[5]; [13]
  Inhibition of the root growth in pregerminated Lepidium sativum seeds (IRG, %): 74.5(±1.2) %
[5]; [14]
  Inhibition of the root growth in pregerminated Lepidium sativum seeds (IRG, %): 83.0(±0.7) %
[5]; [16]
  Inhibition of the root growth in pregerminated Lepidium sativum seeds (IRG, %): 88.2(±0.6) %
[5]; [15]
  Inhibition of the root growth in pregerminated Lepidium sativum seeds (IRG, %): 90.1(±0.8) %
[5]; [17]
  Inhibition of the root growth in pregerminated Lepidium sativum seeds (IRG, %): 92.0(±0.7) %

## O=C(O)c1ccccc1O.OCCN(CCO)CCO [TEA salicylate]
Cress [1]; 0.03 mg L^−1 ref 12
  effect on root and shoot length: significant inhibition effect

## CCCCn1cc[n+](C)c1 [[BMIM][PF6]]
CaCo-2
  IC50: 11.5 mM

## NCCCC[C@H](N)C(=O)O.OCCN(CCO)CCO [[TEA][Lys]]
C. albicans ATCC 10231
  MIC (%): 0.94%
[4]; [7]
  Inhibition of the Lepidium sativum seeds germination (ISG, %): 0.0(±0.0) %
[4]; [8]
  Inhibition of the Lepidium sativum seeds germination (ISG, %): 0.0(±0.0) %
[4]; [9]
  Inhibition of the Lepidium sativum seeds germination (ISG, %): 0.0(±0.0) %
[4]; [10]
  Inhibition of the Lepidium sativum seeds germination (ISG, %): 0.0(±0.0) %
[4]; [11]
  Inhibition of the Lepidium sativum seeds germination (ISG, %): 0.0(±0.0) %
[4]; [12]
  Inhibition of the Lepidium sativum seeds germination (ISG, %): 0.0(±0.0) %
[4]; [13]
  Inhibition of the Lepidium sativum seeds germination (ISG, %): 1.9(±0.8) %
[4]; [14]
  Inhibition of the Lepidium sativum seeds germination (ISG, %): 11.5%
[4]; [16]
  Inhibition of the Lepidium sativum seeds germination (ISG, %): 38.5%
[4]; [15]
  Inhibition of the Lepidium sativum seeds germination (ISG, %): 57.7(±3.1) %
L929 fibroblasts; 24h exposure
  ED20: 0.23±0.01%
  ED50: 0.43±0.01%
  ED80: 0.69±0.02%
L929 fibroblasts; 48h exposure
  ED20: 0.21±0.01%
  ED50: 0.33±0.01%
  ED80: 0.46±0.01%
E. coli ATCC 8739
  MIC (%): 0.94%
  MBC (%): 3.75%
S. aureus ATCC 6538
  MIC (%): 1.88%
[5]; [7]
  Inhibition of the root growth in pregerminated Lepidium sativum seeds (IRG, %): 9.2(±1.9) %
[5]; [8]
  Inhibition of the root growth in pregerminated Lepidium sativum seeds (IRG, %): 14.6(±2.1) %
[5]; [9]
  Inhibition of the root growth in pregerminated Lepidium sativum seeds (IRG, %): 20.0(±1.9) %
[5]; [10]
  Inhibition of the root growth in pregerminated Lepidium sativum seeds (IRG, %): 24.5(±1.9) %
[5]; [11]
  Inhibition of the root growth in pregerminated Lepidium sativum seeds (IRG, %): 52.7(±1.7) %
[5]; [12]
  Inhibition of the root growth in pregerminated Lepidium sativum seeds (IRG, %): 62.3(±1.2) %
[5]; [13]
  Inhibition of the root growth in pregerminated Lepidium sativum seeds (IRG, %): 63.5(±0.9) %
[5]; [14]
  Inhibition of the root growth in pregerminated Lepidium sativum seeds (IRG, %): 78.9(±0.8) %
[5]; [16]
  Inhibition of the root growth in pregerminated Lepidium sativum seeds (IRG, %): 84.9(±0.8) %
[5]; [15]
  Inhibition of the root growth in pregerminated Lepidium sativum seeds (IRG, %): 90.2(±0.6) %
[5]; [17]
  Inhibition of the root growth in pregerminated Lepidium sativum seeds (IRG, %): 94.9(±0.5) %

From publication PMC12029836, “Phytotoxicity, Cytotoxicity, and Antimicrobial Activity of Triethanolammonium Amino Acids Salts” (Molecules, 2025)
